Test results: paper PMC9931769, “Bacterial origins of thymidylate metabolism in Asgard archaea and Eukarya” (Nature Communications, 2023)

Key:
Psyn ThyX = biological target: T1, Psyn ThyX (Promethearchaeum syntrophicum, UniProt A0A5B9D7C8); test: inhibition of NADPH oxidation, absorbance at […] nm; type: biochemical
T1 sequence (A0A5B9D7C8 1-298): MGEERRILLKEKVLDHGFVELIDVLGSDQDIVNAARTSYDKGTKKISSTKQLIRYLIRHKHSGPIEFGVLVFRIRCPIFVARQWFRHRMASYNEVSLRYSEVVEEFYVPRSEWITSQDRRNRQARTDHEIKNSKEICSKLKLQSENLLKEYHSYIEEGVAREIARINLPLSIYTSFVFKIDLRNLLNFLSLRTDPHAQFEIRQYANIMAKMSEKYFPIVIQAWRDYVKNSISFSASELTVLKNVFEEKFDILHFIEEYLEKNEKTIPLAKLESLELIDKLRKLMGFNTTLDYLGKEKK

purified protein = substrate: O=c1ccn([C@H]2C[C@H](O)[C@@H](COP(=O)(O)O)O2)c(=O)[nH]1; test: purified protein; type: biochemical, Promethearchaeum syntrophicum; conditions: 50 mM sodium phosphate pH 8, 300 mM NaCl, 2 mM MgCl2, 50 μM FAD, 750 μM NADPH, 0.4 μM enzyme, 25 °C

Nc1nc2c(c(=O)[nH]1)N1CN(c3ccc(C(=O)N[C@@H](CCC(=O)O)C(=O)O)cc3)C[C@H]1CN2 [CH2H4folate]
inhibition at 200 µM (Psyn ThyX): > 50%

Nc1nc2c(c(=O)[nH]1)N[C@@H](CNc1ccc(C(=O)N[C@@H](CCC(=O)O)C(=O)O)cc1)CN2 [H4folate]
inhibition at 200 µM (Psyn ThyX): > 50%

B1: Psyn ThyX (Promethearchaeum syntrophicum) (protein)
chain: MGEERRILLKEKVLDHGFVELIDVLGSDQDIVNAARTSYDKGTKKISSTKQLIRYLIRHKHSGPIEFGVLVFRIRCPIFVARQWFRHRMASYNEVSLRYSEVVEEFYVPRSEWITSQDRRNRQARTDHEIKNSKEICSKLKLQSENLLKEYHSYIEEGVAREIARINLPLSIYTSFVFKIDLRNLLNFLSLRTDPHAQFEIRQYANIMAKMSEKYFPIVIQAWRDYVKNSISFSASELTVLKNVFEEKFDILHFIEEYLEKNEKTIPLAKLESLELIDKLRKLMGFNTTLDYLGKEKK
Km (purified protein): 0.235 ± 0.035 µM
